From patent publication US20050112573A1, “Method of detecting toxic substance” (priority 2001, published 2005)

System: yeast genes (level of expressed mRNA)
Assay: DNA chip analysis of expressed mRNA of yeast genes after 2 h culture with a toxic chemical substance
Type: cell-based, Saccharomyces cerevisiae S288C
Procedure: Yeast (Saccharomyces cerevtisiae S288C (α SUC2mal mel gap2 CUP1)) were cultured at 25° C. on YPD medium (yeast extract 1%, polypepton 2%, glucose 2%). One of toxic chemical substances was added to the cell at logarithmic growth phase, and the cell was further cultured for two hours. Cell was cultured without any chemical substance in the same condition, and was used as control. Concentrations of the chemical substances were defined to inhibit the growth of the yeast but not lead to death.
After the completion of cultivation, the culture was centrifuged to collect the cells. To the cells, sodium acetate buffer (50 mM sodium acetate, 10 mM EDTA, 1% SDS) was added, and the mixture was shaken at 65° C. for five minutes, followed by returning to room temperature, and obtaining the supernatant, which procedure was repeated two times. To the supernatant, ½ amount of a solution of phenol/chloroform was added, and the mixture was centrifuged to give a supernatant, which was added with an equal amount of chloroform, and the mixture was centrifuged to give a supernatant. To the supernatant, an equal amount of isopropanol containing 0.3 M sodium acetate was added, and the mixture was allowed to stand at room temperature for 30 minutes, after which the mixture was centrifuged to give a sediment of the whole RNAs. Seventy % ethanol was added to the sediment, and the mixture was again centrifuged to give a sediment, which was then dried and dissolved in water. mRNA was isolated from the whole RNAs as followings. In view of the fact that a poly A chain is attached to the 3′ terminus of mRNA, a polynucleotide having a poly T structure which was immobilized on the surface of latex beads was used to trap the mRNA, and then the mRNA was washed and eluted with spine column (Oligotex-dT30<Super>mRNA Purification Kit, Takara). Reverse transcription of the mRNA was conducted with a reverse transcriptase (Super Script II Reverse Transcriptase; catalogue No. 18064-014, GibcoBRL) using fluorescence-labeled nucleotides to give cDNAs that were introduced with Cy3-dUTP or Cy5-dUTP during the reverse transcription.
The labeled cDNAs were dissolved in TE buffer (10 mM Tris-HCl/1 mM EDTA, pH8.0), and the solution was dropped on the DNA chip containing the whole genes of yeast (DNA Chip Research Inc. Japan) so that the cDNAs were hybridized on the DNA chip at 65° C. for over 12 hours. The fluoresces intensity of the DNA chip was read with a scanner, and the ratio relative to the fluorescence intensity resulting from the absence of chemical substance was estimated as the following, which is shown in Tables 1 to 9: [formula]
In the Tables, “Intensity” indicated in the rightmost column is a value of the level of expressed mRNA of each gene in control cells as divided by the average level of the expressions of the whole genes.

Q: What does the source list for `CCCCCCCCCCCCOS(=O)(=O)[O-].[Na+]` [(18), sodium lauryl sulfate]?
A: The level of expressed mRNA in the presence of chemical substance/absence: YML041C (gene YML041C): 1.3; The level of expressed mRNA in the presence of chemical substance/absence: YML079W (gene YML079W): 1.4; level of expressed mRNA in the presence of chemical substance/in its absence (gene YML110C): 1.6; The level of expressed mRNA in the presence of chemical substance/absence: YML118W (gene YML118W): 1.5; The level of expressed mRNA in the presence of chemical substance/absence: YMR068W (gene YMR068W): 1.1; The level of expressed mRNA in the presence of chemical substance/absence: YMR071C (gene YMR071C): 1.9; level of expressed mRNA in the presence of chemical substance/in its absence (gene YMR105C): 2.6; The level of expressed mRNA in the presence of chemical substance/absence: YMR114C (gene YMR114C): 1.3; The level of expressed mRNA in the presence of chemical substance/absence: YMR115W (gene YMR115W): 1.2; The level of expressed mRNA in the presence of chemical substance/absence: YMR160W (gene YMR160W): 1.3; level of expressed mRNA in the presence of chemical substance/in its absence (gene YMR189W): 0.8; The level of expressed mRNA in the presence of chemical substance/absence: YMR258C (gene YMR258C): 1.3; level of expressed mRNA in the presence of chemical substance/in its absence (gene YMR271C): 2.2; level of expressed mRNA in the presence of chemical substance/in its absence (gene YMR272C): 1.4; level of expressed mRNA in the presence of chemical substance/in its absence (gene YMR296C): 0.7; level of expressed mRNA in the presence of chemical substance/in its absence (gene YNL012W): 1.5; The level of expressed mRNA in the presence of chemical substance/absence: YNL026W (gene YNL026W): 1.4; level of expressed mRNA in the presence of chemical substance/in its absence (gene YNL037C): 1.3; level of expressed mRNA in the presence of chemical substance/in its absence (gene YNL045W): 1.1; The level of expressed mRNA in the presence of chemical substance/absence: YNL058C (gene YNL058C): 1.0; The level of expressed mRNA in the presence of chemical substance/absence: YNL063W (gene YNL063W): 1.0; level of expressed mRNA in the presence of chemical substance/in its absence (gene YNL104C): 0.9; level of expressed mRNA in the presence of chemical substance/in its absence (gene YNL106C): 0.9; level of expressed mRNA in the presence of chemical substance/in its absence (gene YNL130C): 1.2; level of expressed mRNA in the presence of chemical substance/in its absence (gene YNL169C): 1.3; The level of expressed mRNA in the presence of chemical substance/absence: YNL176C (gene YNL176C): 0.8; The level of expressed mRNA in the presence of chemical substance/absence: YNL181W (gene YNL181W): 1.3; The level of expressed mRNA in the presence of chemical substance/absence: YNL191W (gene YNL191W): 0.6; The level of expressed mRNA in the presence of chemical substance/absence: YNL194C (gene YNL194C): 2.4; The level of expressed mRNA in the presence of chemical substance/absence: YNL200C (gene YNL200C): 0.9; The level of expressed mRNA in the presence of chemical substance/absence: YNL212W (gene YNL212W): 1.2; level of expressed mRNA in the presence of chemical substance/in its absence (gene YNL231C): 4.0; The level of expressed mRNA in the presence of chemical substance/absence: YNL253W (gene YNL253W): 1.2; The level of expressed mRNA in the presence of chemical substance/absence: YNL265C (gene YNL265C): 1.8; The level of expressed mRNA in the presence of chemical substance/absence: YNL276C (gene YNL276C): 0.8; level of expressed mRNA in the presence of chemical substance/in its absence (gene YNL322C): 1.0; level of expressed mRNA in the presence of chemical substance/in its absence (gene YNR002C): 2.1; level of expressed mRNA in the presence of chemical substance/in its absence (gene YNR019W): 2.0; level of expressed mRNA in the presence of chemical substance/in its absence (gene YNR033W): 1.1; The level of expressed mRNA in the presence of chemical substance/absence: YNR051C (gene YNR051C): 0.8; level of expressed mRNA in the presence of chemical substance/in its absence (gene YNR059W): 2.2; The level of expressed mRNA in the presence of chemical substance/absence: YOL026C (gene YOL026C): 1.4; The level of expressed mRNA in the presence of chemical substance/absence: YOL030W (gene YOL030W): 1.0; level of expressed mRNA in the presence of chemical substance/in its absence (gene YOL058W): 0.8; level of expressed mRNA in the presence of chemical substance/in its absence (gene YOL126C): 2.4; level of expressed mRNA in the presence of chemical substance/in its absence (gene YOL143C): 1.4; level of expressed mRNA in the presence of chemical substance/in its absence (gene YOL153C): 1.7; level of expressed mRNA in the presence of chemical substance/in its absence (gene YOL157C): 1.3; The level of expressed mRNA in the presence of chemical substance/absence: YOR022C (gene YOR022C): 1.1; The level of expressed mRNA in the presence of chemical substance/absence: YOR087W (gene YOR087W): 1.1; The level of expressed mRNA in the presence of chemical substance/absence: YOR088W (gene YOR088W): 0.7; level of expressed mRNA in the presence of chemical substance/in its absence (gene YOR099W): 2.3; level of expressed mRNA in the presence of chemical substance/in its absence (gene YOR130C): 1.1; level of expressed mRNA in the presence of chemical substance/in its absence (gene YOR136W): 1.3; The level of expressed mRNA in the presence of chemical substance/absence: YOR138C (gene YOR138C): 1.1; The level of expressed mRNA in the presence of chemical substance/absence: YOR155C (gene YOR155C): 0.9; The level of expressed mRNA in the presence of chemical substance/absence: YOR253W (gene YOR253W): 0.9
